Measured values taken from US6835382B2, “Ii peptide therapeutics to enhance antigen presentation” (University of Massachusetts, priority 1996, dated 2004).
Non-standard residues stand in square brackets, D forms with d.

Key:
[1] = system: murine E^k MHC class II allele; test: antigenic peptide prepulse assay, E^k allele (fixed APC prepulsed with PGCC81-104); type: cell-based; settings: for Activity in antigenic peptide prepulse assay, E^k (baseline = 1.0): prepulse 1.25 μM antigenic peptide
Procedure: (§1) In a second type of assay, the “peptide prepulse assay”, the antigenic peptide is incubated with paraformaldehyde-fixed APC for 6 h. The APC are washed and incubated for 24 h with the AE101 series homolog and the T cell hybridoma specific for the antigenic peptide. After that incubation, an aliquot of the culture supernatant is transferred to a second culture to measure the relative degree of T hybridoma stimulation, as reflected in the effect of released interleukins on the growth of an interleukin-dependent, indicator cell line, as described above.
(§2) The two above described assays measure different aspects of the molecular mechanism of the AE101 series of peptides. In the “simultaneous assay”, AE101 series peptides are thought to induce the release of endogenously bound peptides and to permit the binding of the second, specific antigenic peptide which is relatively abundant in the culture fluid. The AE101 series peptides enhance antigenic peptide-specific T cell responses in simultaneous assays. In the “peptide prepulse” assay, the specific antigenic peptide becomes bound to MHC class II molecules on the surface of the fixed APC during the 6 h prepulse incubation. The effect of the AE101 series homologs is then thought to release that antigenic peptide, resulting in an apparent suppression of the immune response.
(§3) The AE101 series peptides are thought to contact the MHC class II molecules at a discrete site outside the antigenic peptide-binding groove. AE101 peptide binding to this “Ii-KEY” site is thought to induce a conformational change in the MHC class II molecules accelerating the dissociation of previously bound antigenic peptide. […] The AE101 series peptides thus inhibit antigenic peptide-specific T cell responses in the “peptide prepulse” assays.
(§4) Antigenic peptide-specific T cell activation was measured by the following procedure. Mitomycin C-treated A20 cells (A^dE^d) or CH27 cells APC (A^kE^k) were generated by incubating 5×10^6 cells/mL for 20 min at 37° C. with 0.025 mg/mL of mitomycin C (Sigma) in Dulbecco's Modified Eaglel's Medium (DMEM)/10 mM N-2(hydroxyethylpiperazine-N″[2-ethanesulfonic acid] (HEPES), followed by two washes with four volumes of DMEM-5% fetal calf serum (FCS), 10 mM HEPES. Fixed APC were generated by treating 1×10^6 cells/mL for 5 min with 0.5% paraformaldehyde in PBS (pH 7.2), followed by two washes with four volumes of DMEM-10% FCS, 10 mM HEPES. T cell hybridomas were irradiated 2200 rads before each assay.
(§5) The “peptide prepulse assay” was carried out under essentially the same conditions as described for the “simultaneous assay” with the following modifications. Fixed APC were first incubated for 6 h at 1×10^6 cells/mL in complete DMEM-5% FCS in 24-well microculture plates (1 mL/well) with antigenic peptide, followed by four washes with 10 volumes of DMEM-5% FCS. The cells were then exposed to varying concentrations of AE101 series peptide (64 μM, 16 μM, 4 μM, and 1 μM) for 24 h in the presence of the T cell hybridoma specific to the antigenic peptide. Interleukin release from these cultures was measured by proliferation of HT-2 cells to interleukins in supernatants transferred from the primary culture. Generally, a single dose of 64 μM of each AE101 series peptide was used. The baseline T cell response was measured by culturing T hybridoma cells with the antigenic peptide-prepulsed APC in the absence of AE101 series peptides.
Table 19: Activities of C-terminal truncation analogs of AE101 in an antigenic peptide prepulse assay. […] Paraformaldehyde-treated APC (fixed APC) expressing MHC class II molecules were incubated with antigenic peptide for 6 h (HEL106-116 for E^d and PGCC81-104 for E^k). After this incubation, the prepulsed APC were washed and cultured with T hybridoma cells and AE101 series peptides. The antigenic peptide concentration during the prepulse was 12 μM for Ed and 20 μM for E^k. The AE101 series peptide concentrations were 64 μM for E^d and 16 μM for E^k. […]

[2] = biological target: T1, murine E^d MHC class II allele (Mus musculus, UniProt P01904+P01915); test: antigenic peptide prepulse assay, E^d allele (fixed APC prepulsed with HEL106-116); type: cell-based; set-up: The A20 and CH27 B cell lymphoma lines express H-2^d and H-2^k alleles, respectively; endogenous in cells; host or cells: A20 B cell lymphoma (mitomycin C-treated or paraformaldehyde-fixed)
T1 sequence (P01904 26-255): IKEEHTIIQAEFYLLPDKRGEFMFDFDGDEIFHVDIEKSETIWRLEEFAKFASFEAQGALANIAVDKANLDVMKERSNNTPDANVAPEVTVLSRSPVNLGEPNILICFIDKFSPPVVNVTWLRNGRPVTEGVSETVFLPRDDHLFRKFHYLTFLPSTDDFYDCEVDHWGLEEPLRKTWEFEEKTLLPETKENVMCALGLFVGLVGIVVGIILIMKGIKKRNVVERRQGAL
T1 sequence (P01915 27-264 limits assumed): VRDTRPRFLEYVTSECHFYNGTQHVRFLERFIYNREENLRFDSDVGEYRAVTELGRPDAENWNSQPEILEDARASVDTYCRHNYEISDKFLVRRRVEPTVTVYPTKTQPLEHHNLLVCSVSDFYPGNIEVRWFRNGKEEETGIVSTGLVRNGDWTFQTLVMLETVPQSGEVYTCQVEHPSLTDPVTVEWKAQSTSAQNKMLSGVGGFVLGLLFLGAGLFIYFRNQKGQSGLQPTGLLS
Procedure: as §1, §2, §3, §4, §5
[…] […] Paraformaldehyde-treated APC (fixed APC) expressing MHC class II molecules were incubated with antigenic peptide for 6 h (HEL106-116 for E^d and PGCC81-104 for E^k). After this incubation, the prepulsed APC were washed and cultured with T hybridoma cells and AE101 series peptides. […] The AE101 series peptide concentrations were 64 μM for E^d and 16 μM for E^k. The dilutions of supernatant taken into the HT-2 cell assay were 1:4 for Ed and 1:2 for E^k.

[3] = Table 25, AE peptide 64 μM, prepulse 2.5 μM antigenic peptide, supernatant 1:10
[4] = Table 25, AE peptide 64 μM, prepulse 24 μM antigenic peptide, supernatant 1:4
[5] = Table 20, AE peptide 16 μM, prepulse 20 μM antigenic peptide, supernatant 1:2
[6] = Table 20, AE peptide 64 μM, prepulse 3 μM antigenic peptide, supernatant 1:2
[7] = Table 26, AE peptide 64 μM, supernatant 1:8
[8] = Table 26, AE peptide 64 μM, prepulse 24 μM antigenic peptide, supernatant 1:2
[9] = Table 22, AE peptide 16 μM, prepulse 20 μM antigenic peptide, supernatant 1:2
[10] = Table 24, AE peptide 64 μM, prepulse 0.625 μM antigenic peptide, supernatant 1:8
[11] = Table 22, AE peptide 64 μM, prepulse 6 μM antigenic peptide, supernatant 1:8
[12] = Table 24, AE peptide 64 μM, prepulse 24 μM antigenic peptide, supernatant 1:4

Ac-LRMK N PK-NH2 (Ac-LRMKNPK-NH2) [AE232]
Activity in antigenic peptide prepulse assay, E^k (baseline = 1.00) [1, 3]: 0.92 | Activity in antigenic peptide prepulse assay, E^d (baseline = 1.00) [2, 4]: 0.44

Ac-Y N MKLPKSAK-NH2 [AE137]
Activity in antigenic peptide prepulse assay, E^k (baseline = 1.00) [1, 5]: 0.72 | Activity in antigenic peptide prepulse assay, E^d (baseline = 1.00) [2, 6]: 0.57

Ac-Y K MKLPKSAK-NH2 [AE134]
Activity in antigenic peptide prepulse assay, E^k (baseline = 1.00) [1, 5]: 0.43 | Activity in antigenic peptide prepulse assay, E^k (baseline = 1.0) [1, 7]: 0.98 | Activity in antigenic peptide prepulse assay, E^d (baseline = 1.00) [2, 6]: 0.60 | Activity in antigenic peptide prepulse assay, E^d (baseline = 1.0) [2, 8]: 0.83

Ac-Y M MKLPKSAK-NH2 [AE141]
Activity in antigenic peptide prepulse assay, E^k (baseline = 1.00) [1, 5]: 0.52 | Activity in antigenic peptide prepulse assay, E^d (baseline = 1.00) [2, 6]: 0.41

Ac-LRMKLPK-NH2 [AE114]
Activity in antigenic peptide prepulse assay, E^k (baseline = 1.00) [1, 9]: 0.15 | Activity in antigenic peptide prepulse assay, E^k (baseline = 1) ([1]; Table 23, as printed: antigenic peptide prepulse 64 μM, AE peptide 1:8 μM, supernatant 1:2): 0.78 | Activity in antigenic peptide prepulse assay, E^k (baseline = 1.00) [1, 10]: 0.78 | Activity in antigenic peptide prepulse assay, E^k (baseline = 1.00) [1, 3]: 0.79 | Activity in antigenic peptide prepulse assay, E^k (baseline = 1.0) [1, 7]: 0.98 | T cell response relative to baseline without AE peptide (None = 1.0), E^k ([1]; Table 27, antigenic peptide prepulse 1.25 μM, AE101 series peptide 64 μM, HT-2 supernatant dilution 1:8): 0.69 | Activity in antigenic peptide prepulse assay, E^k (baseline = 1.0) ([1]; Table 28, AE peptide 64 μM, supernatant 1:4): 0.78 | Activity in antigenic peptide prepulse assay, E^d (baseline = 1.00) [2, 11]: 0.02 | Activity in antigenic peptide prepulse assay, E^d (baseline = 1) ([2]; Table 23, as printed: antigenic peptide prepulse 64 μM, AE peptide 1:4 μM, supernatant 1:8): 0.41 | Activity in antigenic peptide prepulse assay, E^d (baseline = 1.00) [2, 12]: 0.41 | Activity in antigenic peptide prepulse assay, E^d (baseline = 1.00) [2, 4]: 0.31 | Activity in antigenic peptide prepulse assay, E^d (baseline = 1.0) [2, 8]: 0.28 | T cell response relative to baseline without AE peptide (None = 1.0), E^d ([2]; Table 27, antigenic peptide prepulse 24 μM, AE101 series peptide 64 μM, HT-2 supernatant dilution 1:8): 0.32 | Activity in antigenic peptide prepulse assay, E^d (baseline = 1.0) ([2]; Table 28, AE peptide 64 μM, prepulse 24 μM antigenic peptide, supernatant 1:4): 0.41

Ac-LRMK l PK-NH2 [AE164]
Activity in antigenic peptide prepulse assay, E^k (baseline = 1.00) [1, 9]: 0.21 | Activity in antigenic peptide prepulse assay, E^k (baseline = 1.00) [1, 10]: 0.67 | Activity in antigenic peptide prepulse assay, E^d (baseline = 1.00) [2, 11]: 0.37 | Activity in antigenic peptide prepulse assay, E^d (baseline = 1.00) [2, 12]: 0.59

Ac-LRM k LPK-NH2 [AE163]
Activity in antigenic peptide prepulse assay, E^k (baseline = 1.00) [1, 9]: 0.99 | Activity in antigenic peptide prepulse assay, E^d (baseline = 1.00) [2, 11]: 0.39

Ac-YRMKL hydrP KSAK-NH2 (Ac-YRMKL[hydrP]KSAK-NH2) [AE143]
Activity in antigenic peptide prepulse assay, E^k (baseline = 1.00) ([1]; Table 21, AE peptide 16 μM, prepulse 20 μM antigenic peptide, supernatant 1:2): 0.10 | Activity in antigenic peptide prepulse assay, E^d (baseline = 1.00) ([2]; Table 21, AE peptide 64 μM, prepulse 24 μM antigenic peptide, supernatant 1:8): 0.18

Ac-LR (mL) KLPK-NH2 [AE302]
Activity in antigenic peptide prepulse assay, E^k (baseline = 1.00) [1, 10]: 0.85 | Activity in antigenic peptide prepulse assay, E^d (baseline = 1.00) [2, 12]: 0.82

Ac-YRMKLP-NH2 [AE115]
Activity in antigenic peptide prepulse assay, E^k (baseline without AE peptide = 1.00) ([1]; Table 19, AE peptide 16 μM, prepulse 20 μM PGCC81-104, supernatant 1:2): 0.07 | Activity in antigenic peptide prepulse assay, E^d (baseline without AE peptide = 1.00) ([2]; Table 19, AE peptide 64 μM, prepulse 12 μM HEL106-116, supernatant 1:4): 0.49

Ac-LR (mL) KyPk-NH2 [AE306]
Activity in antigenic peptide prepulse assay, E^k (baseline = 1.00) [1, 10]: 1.00 | Activity in antigenic peptide prepulse assay, E^d (baseline = 1.00) [2, 12]: 0.68
